Measured values published in patent publication US6713475B2, “Tricyclic benzodiazepines as vasopressin receptor antagonists” (Ortho-McNeil Pharmaceutical, Inc., priority 1999, dated 2004).

Legend:
V2 = V2 (Homo sapiens, UniProt P30518); test: In vitro recombinant vasopressin receptor binding assay (V2 Bdg), displacement of 3H-arginine vasopressin; parameters: expressed in transfected cells; host or cells: HEK-293; conditions: for IC50: membrane with cloned human V-2 receptor (HEK-293); for V2 Bdg % inh: 0.1 uM, printed in parentheses in place of IC50
Protocol: (§1) In vitro Recombinant Vasopressin Receptor Binding Assay
Compounds were assessed for their ability to displace ^3H-arginine vasopressin from the human V-1 or V-2 receptor in HEK-293 cells. […] Into wells of 96-well round bottom polypropylene plates were added buffer, test compound, membrane (containing cloned human V-1 or V-2 receptor), and ^3H-vasopressin. The reaction plates were allowed to sit at room temperature for one hour. The samples were filtered through Unifilter GF/C plates (presoaked in 0.3 polyethyleneimine). The plates were washed 5 times with cold physiological saline containing 0.05% Tween 20. After drying, the bottom of the filter plates were sealed and 0.025 ml of Microscint-20 was added to each filter. The top of the plate was sealed, and the plate was counted.

human V-1 receptor = target: T1, human V-1 receptor (Homo sapiens, UniProt P37288); test: In vitro recombinant vasopressin receptor binding assay (V1 Bdg), displacement of 3H-arginine vasopressin; conditions: for inhibition at 0.1 µM: read-out: V1 Bdg (% inh, 0.1 uM)
T1 construct: expressed in transfected cells; host or cells: HEK-293
Protocol: as §1
Compounds were assessed for their ability to displace ^3H-arginine vasopressin from the human V-1 or V-2 receptor in HEK-293 cells. Assay buffer is 50 mM Tris-Cl, 5 mM MgCl2, 0.1% BSA (pH 7.5) containing 5 ug/ml of aprotinin, leupeptin, pepstatin, 50 ug/ml bacitracin, and 1 mM Pefabloc. ^3H-vasopressin is ^3H-arginine-8-vasopressin (68.5 Ci/mmol, final concentration in assay is 0.65-0.75 nM). Into wells of 96-well round bottom polypropylene plates were added buffer, test compound, membrane (containing cloned human V-1 or V-2 receptor), and ^3H-vasopressin. The reaction plates were allowed to sit at room temperature for one hour. The samples were filtered through Unifilter GF/C plates (presoaked in 0.3 polyethyleneimine). The plates were washed 5 times with cold physiological saline containing 0.05% Tween 20. After drying, the bottom of the filter plates were sealed and 0.025 ml of Microscint-20 was added to each filter. The top of the plate was sealed, and the plate was counted. Non-specific binding was determined by the addition of 1.25 uM arginine-8-vasopressin in those wells.

T1 sequence (P37288 whole entry): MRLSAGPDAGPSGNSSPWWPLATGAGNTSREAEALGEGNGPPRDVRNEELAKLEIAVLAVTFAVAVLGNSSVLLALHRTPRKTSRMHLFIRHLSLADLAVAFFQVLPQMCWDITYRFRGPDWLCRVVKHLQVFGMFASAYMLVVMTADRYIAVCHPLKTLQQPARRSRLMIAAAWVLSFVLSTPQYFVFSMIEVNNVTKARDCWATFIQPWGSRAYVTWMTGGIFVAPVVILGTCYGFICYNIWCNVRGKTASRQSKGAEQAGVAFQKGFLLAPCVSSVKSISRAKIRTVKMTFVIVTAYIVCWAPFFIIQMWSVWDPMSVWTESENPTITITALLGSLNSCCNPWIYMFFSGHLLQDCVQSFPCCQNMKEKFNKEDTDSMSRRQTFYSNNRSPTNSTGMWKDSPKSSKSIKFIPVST

IC50 (V2) [nM] | inhibition at 0.1 µM (human V-1 receptor) [%] | Compound | V2 Bdg % inh (V2) | also measured
9 | 36 | COc1cc(NC(=O)c2ccccc2-c2ccccc2)ccc1C(=O)N1CC2COCCN2Cc2ccccc21 (racemic) [Compound 14, (RS)-2-Phenyl-N-[3-methoxy-4-(1,3,4,12a-tetrahydro-6H-[1,4]oxazino[4,3-a][1,4]-benzodiazepin-11(12H)-yl-carbonyl)phenyl]benzamide] | – | –
6 | 3 | Cc1cc(NC(=O)c2ccccc2-c2ccccc2)ccc1C(=O)N1CC2COCCN2Cc2ccccc21 (racemic) [Compound 29, (RS)-2-Phenyl-N-[3-methyl-4-(1,3,4,12a-tetrahydro-6H-[1,4]oxazino[4,3-a][1,4]-benzodiazepin-11(12H)-yl-carbonyl)phenyl]benzamide] | – | –
20 | – | O=C(Nc1ccc(C(=O)N2CC3CSCCN3Cc3cc(F)ccc32)cc1)c1ccccc1-c1ccccc1 (racemic) [Compound 32, (RS)-2-Phenyl-N-[4-(8-fluoro-1,3,4,12a-tetrahydro-6H-[1,4]thiazino[4,3-a][1,4]-benzodiazepin-11(12H)-yl-carbonyl)phenyl]benzamide] | – | inhibition at 10 µM (human V-1 receptor; 10 uM, read-out: V1 Bdg % inh): 44%
8 | 69 | O=C(Nc1ccc(C(=O)N2CC3COCCN3Cc3ccccc32)cc1)c1ccccc1-c1ccccc1 (racemic) [Compound 20, (RS)-2-Phenyl-N-[4-(1,3,4,12a-tetrahydro-6H-[1,4]oxazino[4,3-a][1,4]-benzodiazepin-11(12H)-yl-carbonyl)phenyl]benzamide] | – | –
10 | 14 | Cc1ccc(-c2ccccc2C(=O)Nc2ccc(C(=O)N3CC4COCCN4Cc4ccccc43)c(C)c2)cc1 (racemic) [Compound 28, (RS)-2-(4-Methyl-phenyl)-N-[3-methyl-4-(1,3,4,12a-tetrahydro-6H-[1,4]oxazino[4,3-a][1,4]-benzodiazepin-11(12H)-yl-carbonyl)phenyl]benzamide] | – | –
22 | 75 | O=C(Nc1ccc(C(=O)N2CC3CSCCN3Cc3cc(Cl)ccc32)cc1)c1ccccc1-c1ccccc1 (racemic) [Compound 37, (RS)-2-Phenyl-N-[4-(8-chloro-1,3,4,12a-tetrahydro-6H-[1,4]thiazino[4,3-a][1,4]-benzodiazepin-11(12H)-yl-carbonyl)phenyl]benzamide] | – | –
6 | 67 | O=C(Nc1ccc(C(=O)N2CC3COCCN3Cc3ccccc32)cc1O)c1ccccc1-c1ccccc1 (racemic) [Compound 22, (RS)-2-Phenyl-N-[2-hydroxy-4-(1,3,4,12a-tetrahydro-6H-[1,4]oxazino[4,3-a][1,4]-benzodiazepin-11(12H)-yl-carbonyl)phenyl]benzamide] | – | –
47 | 8 | CN(C)c1cc(NC(=O)c2ccccc2-c2ccccc2)ccc1C(=O)N1C[C@H]2CSCCN2Cc2ccccc21 [Compound 46, (S)-2-Phenyl-N-[3-dimethylamino-4-(1,3,4,12a-tetrahydro-6H-[1,4]thiazino[4,3-a][1,4]-benzodiazepin-11(12H)-yl-carbonyl)phenyl]benzamide] | – | –
9 | 29 | O=C(Nc1ccc(C(=O)N2C[C@H]3COCCN3Cc3ccccc32)c(Cl)c1)c1ccccc1-c1ccc(O)cc1 [Compound 5, (S)-2-(4-Hydroxyphenyl)-N-[3-chloro-4-(1,3,4,12a-tetrahydro-6H-[1,4]oxazino[4,3-a][1,4]-benzodiazepin-11(12H)-yl-carbonyl)phenyl]benzamide] | – | –
12 | 60 | Cc1ccc(-c2ccccc2C(=O)Nc2ccc(C(=O)N3CC4COCCN4Cc4ccccc43)c(Cl)c2)cc1 (racemic) [Compound 25, (RS)-2-(4-Methyl-phenyl)-N-[3-chloro-4-(1,3,4,12a-tetrahydro-6H-[1,4]oxazino[4,3-a][1,4]-benzodiazepin-11(12H)-yl-carbonyl)phenyl]benzamide] | – | –

The next lines start with the compound.

Compound | IC50 (V2) [nM] | inhibition at 0.1 µM (human V-1 receptor) [%] | V2 Bdg % inh (V2) | also measured
COc1cc(NC(=O)c2ccccc2-c2ccc(C)cc2)ccc1C(=O)N1CC2CN(C)CCN2Cc2ccccc21 (racemic) [Compound 85, (RS)-2-(4-Methyl-phenyl)-N-[3-methoxy-4-(1,3,4,12a-tetrahydro-2-methyl-6H-[1,4]pyrazino[4,3-a][1,4]-benzodiazepin-11(12H)-yl-carbonyl)phenyl]benzamide] | – | – | (54%/0.1 uM) | V1 Bdg % inh (human V-1 receptor; 1 uM): (19%/1 uM)
COc1cccc(-c2ccccc2C(=O)Nc2ccc(C(=O)N3CC4CN(C)CCN4Cc4ccccc43)c(Cl)c2)c1 (racemic) [Compound 68, (RS)-2-(3-Methoxy-phenyl)-N-[3-chloro-4-(1,3,4,12a-tetrahydro-2-methyl-6H-[1,4]pyrazino[4,3-a][1,4]-benzodiazepin-11(12H)-yl-carbonyl)phenyl]benzamide] | – | – | (37%/0.1 uM) | V1 Bdg % inh (human V-1 receptor; 1 uM): (7%/1 uM)
O=CN1CCN2Cc3ccccc3N(C(=O)c3ccc(NC(=O)c4ccccc4-c4ccccc4)cc3)CC2C1 (racemic) [Compound 59, (RS)-2-Phenyl-N-[4-(1,3,4,12a-tetrahydro-2-formyl-6H-[1,4]pyrazino[4,3-a][1,4]-benzodiazepin-11(12H)-yl-carbonyl)phenyl]benzamide] | – | – | (29%/0.1 uM) | V1 Bdg % inh (human V-1 receptor; 10 uM): (17%/10 uM)
(RS)-2-Methyl-3-chloro-N-[3-chloro-4-(1,3,4,12a-tetrahydro-2-methyl-6H-[1,4]pyrazino[4,3-a][1,4]-benzodiazepin-11(12H)-yl-carbonyl)phenyl]benzamide [Compound 95] | – | – | (38%/0.1 uM) | V1 Bdg % inh (human V-1 receptor; 1 uM): (10%/1 uM)
Cc1cccc(C(=O)Nc2ccc(C(=O)N3CC4CSCCN4Cc4ccccc43)c(Cl)c2)c1I (racemic) [Compound 42, (RS)-2-Iodo-3-methyl-N-[3-chloro-4-(1,3,4,12a-tetrahydro-6H-[1,4]thiazino[4,3-a][1,4]-benzodiazepin-11(12H)-yl-carbonyl)phenyl]benzamide] | – | – | (62%/0.1 uM) | V1 Bdg (% inh, 0.1 uM) (human V-1 receptor; 0.1 uM): 0%
Cc1cccc(C)c1C(=O)Nc1ccc(C(=O)N2CC3COCCN3Cc3ccccc32)c(Cl)c1 (racemic) [Compound 10, (RS)-2,6-Dimethyl-N-[3-chloro-4-(1,3,4,12a-tetrahydro-6H-[1,4]oxazino[4,3-a][1,4]-benzodiazepin-11(12H)-yl-carbonyl)phenyl]benzamide] | 9 | 15 | – | –
Cc1csc(-c2cc(F)ccc2C(=O)Nc2ccc(C(=O)N3CC4COCCN4Cc4ccccc43)c(Cl)c2)c1 (racemic) [Compound 9, (RS)-2-(4-Methyl-2-thienyl)-4-fluoro-N-[3-chloro-4-(1,3,4,12a-tetrahydro-6H-[1,4]oxazino[4,3-a][1,4]-benzodiazepin-11(12H)-yl-carbonyl)phenyl]benzamide] | 11 | 18 | – | –
COc1ccc(-c2ccccc2C(=O)Nc2ccc(C(=O)N3CC4CN(C)CCN4Cc4ccccc43)c(Cl)c2)cc1 (racemic) [Compound 67, (RS)-2-(4-Methoxy-phenyl)-N-[3-chloro-4-(1,3,4,12a-tetrahydro-2-methyl-6H-[1,4]pyrazino[4,3-a][1,4]-benzodiazepin-11(12H)-yl-carbonyl)phenyl]benzamide] | – | – | (36%/0.1 uM) | V1 Bdg % inh (human V-1 receptor; 1 uM): (14%/1 uM)
